Data reported in ChEMBL document CHEMBL3044788, “α-(Substituted-phenoxyacetoxy)-α-heterocyclylmethylphosphonates: synthesis, herbicidal activity, inhibition on pyruvate dehydrogenase complex (PDHc), and application as postemergent herbicide against broadleaf weeds” (J Agric Food Chem, 2013).

Assays:
[1] = system: Oryza sativa; test: Herbicidal activity against Oryza sativa (rice) assessed as relative growth inhibition at 1200 g/ha in greenhouse by postemergence herbicidal activity assay; type: organism-based; settings: in vivo, other
[2] = system: Polygonum aviculare; test: Herbicidal activity against Polygonum aviculare assessed as relative growth inhibition at 450 g/ha in greenhouse by post-emergence herbicidal activity assay; type: functional; settings: read-out: GI
[3] = system: Brassica rapa subsp. oleifera; test: Herbicidal activity against Brassica rapa subsp. oleifera assessed as inhibition of rape root growth at 450 g/ha by postemergence herbicidal activity assay; type: functional; settings: post-emergence, read-out: GI
[4] = system: Chenopodium album; test: Herbicidal activity against Chenopodium album assessed as relative growth inhibition at 50 g/ha in greenhouse by post-emergence herbicidal activity assay; type: functional; settings: read-out: GI
[5] = system: Zea mays; test: Herbicidal activity against Zea mays (maize) assessed as relative growth inhibition at 600 g/ha in greenhouse by postemergence herbicidal activity assay; type: organism-based; settings: in vivo, other
[6] = system: Amaranthus spinosus; test: Herbicidal activity against Amaranthus spinosus assessed as relative growth inhibition at 900 g/ha in greenhouse by postemergence herbicidal activity assay; type: functional; settings: post-emergence, read-out: GI
[7] = system: Amaranthus blitum; test: Herbicidal activity against Amaranthus blitum assessed as relative growth inhibition at 100 g/ha in greenhouse by post-emergence herbicidal activity assay; type: functional; settings: read-out: GI
[8] = system: Amaranthus spinosus; test: Herbicidal activity against Amaranthus spinosus assessed as relative growth inhibition at 200 g/ha in greenhouse by postemergence herbicidal activity assay; type: functional; settings: post-emergence, read-out: GI
[9] = system: Oryza sativa; test: Herbicidal activity against Oryza sativa (rice) assessed as relative growth inhibition at 450 g/ha in greenhouse by postemergence herbicidal activity assay; type: organism-based; settings: in vivo, other
[10] = system: Chenopodium album; test: Herbicidal activity against Chenopodium album assessed as relative growth inhibition at 900 g/ha in greenhouse by post-emergence herbicidal activity assay; type: functional; settings: read-out: GI
[11] = Inhibition of Oryza sativa (rice) PDHc by spectrophotometric assay
[12] = system: Pisum sativum; test: Herbicidal activity against 2 to 3 leaf stage Pisum sativum assessed as inhibition of plant growth at 450 g/ha in greenhouse by postemergence herbicidal activity assay; type: functional; settings: Lathyrus oleraceus, post-emergence; read-out: GI
[13] = system: Zea mays; test: Herbicidal activity against Zea mays (maize) assessed as relative growth inhibition at 300 g/ha in greenhouse by postemergence herbicidal activity assay; type: organism-based; settings: in vivo, other
[14] = system: Chenopodium album; test: Herbicidal activity against Chenopodium album assessed as relative growth inhibition at 200 g/ha in greenhouse by post-emergence herbicidal activity assay; type: functional; settings: read-out: GI
[15] = system: Amaranthus blitum; test: Herbicidal activity against Amaranthus blitum assessed as relative growth inhibition at 900 g/ha in greenhouse by post-emergence herbicidal activity assay; type: functional; settings: read-out: GI
[16] = system: Amaranthus spinosus; test: Herbicidal activity against Amaranthus spinosus assessed as relative growth inhibition at 50 g/ha in greenhouse by postemergence herbicidal activity assay; type: functional; settings: post-emergence, read-out: GI
[17] = system: Abutilon theophrasti; test: Herbicidal activity against two to three-leaf stage Abutilon theophrasti (velvetleaf) assessed as inhibition of plant growth at 150 g/ha in greenhouse by post-emergence herbicidal activity assay; type: functional; settings: read-out: GI
[18] = system: Beta vulgaris; test: Herbicidal activity against Beta vulgaris assessed as relative growth inhibition at 200 g/ha in greenhouse by post-emergence herbicidal activity assay; type: functional; settings: read-out: GI
[19] = system: Beta vulgaris; test: Herbicidal activity against Beta vulgaris assessed as relative growth inhibition at 900 g/ha in greenhouse by post-emergence herbicidal activity assay; type: functional; settings: read-out: GI
[20] = system: Amaranthus spinosus; test: Herbicidal activity against Amaranthus spinosus assessed as relative growth inhibition at 300 g/ha in greenhouse by postemergence herbicidal activity assay; type: functional; settings: post-emergence, read-out: GI
[21] = system: Brassica rapa subsp. oleifera; test: Herbicidal activity against Brassica rapa subsp. oleifera assessed as inhibition of rape root growth at 450 g/ha by pre-emergence herbicidal activity assay; type: functional; settings: read-out: GI
[22] = Toxicity in percutaneously dosed Rattus norvegicus (rat); type: organism-based; settings: in vivo, topical or ocular
[23] = system: Beta vulgaris; test: Herbicidal activity against Beta vulgaris assessed as relative growth inhibition at 100 g/ha in greenhouse by post-emergence herbicidal activity assay; type: functional; settings: read-out: GI
[24] = system: Chenopodium album; test: Herbicidal activity against Chenopodium album assessed as relative growth inhibition at 450 g/ha in greenhouse by post-emergence herbicidal activity assay; type: functional; settings: read-out: GI
[25] = system: Chenopodium album; test: Herbicidal activity against Chenopodium album assessed as relative growth inhibition at 1200 g/ha in greenhouse by post-emergence herbicidal activity assay; type: functional; settings: read-out: GI
[26] = system: Brassica rapa subsp. oleifera; test: Herbicidal activity against Brassica rapa subsp. oleifera assessed as inhibition of rape root growth; type: functional, organism-based
[27] = system: Amaranthus spinosus; test: Herbicidal activity against Amaranthus spinosus assessed as relative growth inhibition at 600 g/ha in greenhouse by postemergence herbicidal activity assay; type: functional; settings: post-emergence, read-out: GI
[28] = system: Beta vulgaris; test: Herbicidal activity against Beta vulgaris assessed as relative growth inhibition at 300 g/ha in greenhouse by post-emergence herbicidal activity assay; type: functional; settings: read-out: GI
[29] = system: Oryza sativa; test: Herbicidal activity against Oryza sativa (rice) assessed as relative growth inhibition at 900 g/ha in greenhouse by postemergence herbicidal activity assay; type: organism-based; settings: in vivo, other
[30] = system: Amaranthus blitum; test: Herbicidal activity against Amaranthus blitum assessed as relative growth inhibition at 50 g/ha in greenhouse by post-emergence herbicidal activity assay; type: functional; settings: read-out: GI
[31] = system: Zea mays; test: Herbicidal activity against Zea mays (maize) assessed as relative growth inhibition at 900 g/ha in greenhouse by postemergence herbicidal activity assay; type: organism-based; settings: in vivo, other
[32] = system: Polygonum aviculare; test: Herbicidal activity against Polygonum aviculare assessed as relative growth inhibition at 300 g/ha in greenhouse by post-emergence herbicidal activity assay; type: functional; settings: read-out: GI
[33] = Toxicity in orally dosed Rattus norvegicus (rat); type: organism-based; settings: in vivo, po
[34] = system: Oryza sativa; test: Herbicidal activity against Oryza sativa (rice) assessed as relative growth inhibition at 300 g/ha in greenhouse by postemergence herbicidal activity assay; type: organism-based; settings: in vivo, other

## COP(=O)(OC)C(OC(=O)COc1ccc(Cl)cc1Cl)c1ccco1 (centres undefined)
[1]
  growth inhibition (GI): 20%
[2]
  inhibition of growth at 450 g/ha: 100%
[3]
  inhibition of growth at 450 g/ha: 92%
[4]
  inhibition of growth at 50 g/ha: 80%
[5]
  growth inhibition (GI): 0%
[6]
  inhibition of growth at 900 g/ha: 100%
[7]
  inhibition of growth at 100 g/ha: 100%
[8]
  inhibition of growth at 200 g/ha: 98%
[9]
  growth inhibition (GI): 0%
[10]
  inhibition of growth at 900 g/ha: 100%
[11]
  IC50: 704 µM
[12]
  inhibition of growth at 450 g/ha: 90%
[13]
  growth inhibition (GI): 0%
[14]
  inhibition of growth at 200 g/ha: 100%
[15]
  inhibition of growth at 900 g/ha: 100%
[16]
  inhibition of growth at 50 g/ha: 60%
[17]
  inhibition of growth at 150 g/ha: 95%
[18]
  inhibition of growth at 200 g/ha: 98%
[19]
  inhibition of growth at 900 g/ha: 100%
[20]
  inhibition of growth at 300 g/ha: 98%
[21]
  inhibition of growth at 450 g/ha: 94%
[22]
  LD50: > 2000 mg/kg
[23]
  inhibition of growth at 100 g/ha: 80%
[24]
  inhibition of growth at 450 g/ha: 100%
[25]
  inhibition of growth at 1200 g/ha: 100%
[26]
  IC50: 0.0418 µM
[27]
  inhibition of growth at 600 g/ha: 100%
[28]
  inhibition of growth at 300 g/ha: 98%
[29]
  growth inhibition (GI): 0%
[30]
  inhibition of growth at 50 g/ha: 100%
[31]
  growth inhibition (GI): 0%
[32]
  inhibition of growth at 300 g/ha: 91%
[33]
  LD50: 2700 mg/kg
[34]
  growth inhibition (GI): 0%
